Type in all cases: biochemical
In assay [1] the target is T1, PDGFR β enzyme (Homo sapiens, UniProt P09619).
T1 construct: purchased Invitrogen P3082
Briefly: Inhibitory activity to PDGFR β enzyme, HTRF kinEASE TK kit. The following applies: read-out: Inhibition rate % (PDGFR β). As for the experimental part:
HTRF kinEASE TK (Cat.62TK0PEC, Cisbio)
PDGFR β enzyme (Cat.P3082, Invitrogen)
1 mL 1×Kinase Buffer includes 200 μL 5×Enzyme buffer, 5 μL 1M MgCl2, 1 μL 1M DTT, 1 μL 1M MnCl2, 20 μL 2500 nM SEB, 773 μL ddH2O.
TK-Substrate and ATP are diluted to 2.5 times of reaction concentration with 1×PDGFR β Kinase Buffer.
5×PDGFR β enzyme working solution is prepared with 1×PDGFR β kinase buffer.
4×Sa-XL665 working solution is prepared with Detection Buffer.
TK-Ab-Cryptate is diluted 100 times with Detection Buffer to use as working solution.

Assay [2] has as its target T2, PI3K α (Homo sapiens, UniProt P42336).
T2 construct: purchased Millipore 14-602
Briefly: Inhibitory activity to PI3K α, PI 3-Kinase (human) HTRF Assay kit. The following applies: read-out: % Inhibition Rate to PI3K α. The text has this: (§1) Study on the inhibitory activity of the compounds of present invention to PI 3κα, PI3κδ and PI3κγ. Two or three concentrations of the compounds are selected to preliminary screening to calculate respectively the activity inhibition rate of the compounds of corresponding concentrations to enzyme, then the compounds with better activity are selected by preliminary screening for IC50 test.
(§2) PI 3-Kinase (human) HTRF™ Assay kit (Cat.33-017, Millipore)
PI 3k α (Cat.14-602, Millipore)
(§3) 4× Reaction Buffer (Cat.33-002, Millipore) is diluted with ddH2O to 1.33×, and 1M DTT is added to make the final concentration as 6.67 mM. For example, 10 μL DTT is added into 500 μL 4× Reaction Buffer, and water is added to 1.5 mL.
(§4) The Test compounds are dissolved with DMSO to 1 mM as storage liquid. 2 μL of each of storage liquid is added into 48 μL ddH2O, to obtain the 40 μM compounds solution containing 4% DMSO. After mixing, 3 μL of each of the solution is added into 27 μL 4% DMSO (in ddH2O) to obtain the 4 μM compounds solution. 5 μL of each dilute solution is added into 384-well plates, then the final concentration of the compounds in the 20 μL final kinase reaction system is 10 μM and 1 μM respectively contained 1% DMSO. The dilution methods of compounds are similar to the preliminary screening in IC50 test.
(§5) 2×PIP2 working fluid is prepared with 1.33× reaction buffer to the final concentration of 20 μM.
The screening concentration of PI 3k α kinase: 8 ng/well,
(§6) Kinase is diluted with 2×PIP2 operating fluid, the concentration of kinase operating fluid is 2 times of screening concentration.
(§7) 10 mM ATP is diluted with 1.33× reaction buffer to 400 μM. The concentration of ATP is 100 μM in 20 μL kinase reaction system.
(§8) Stop A and Stop B are mixed according to the proportion of 3:1, and are placed for 2 hours at room temperature to obtain the stop solution available.
(§9) DM C, DM A and DM B are mixed according to the proportion of 18:1:1, and are placed for 2 hours at room temperature to obtain the detection solution available.

Assay [3] has as its target T3, PI3 K γ (Homo sapiens, UniProt P48736).
T3 construct: purchased Biology, Medicilon
Briefly: Inhibitory activity to PI3K γ, PI 3-Kinase (human) HTRF Assay kit. The following applies: read-out: Inhibition rate % to PI3 K γ.
Source text: as §1, §2
PI 3k γ (Biology, Medicilon)
as §3, §4, §5
The screening concentration of PI 3k γ kinase: 80 ng/well,
as §6, §7, §8, §9

Assay [4] addresses T4, PI3Kδ (Homo sapiens, UniProt O00329).
T4 construct: purchased Millipore 14-604
Briefly: Inhibitory activity to PI3K δ, PI 3-Kinase (human) HTRF Assay kit. The following applies: read-out: Inhibition rate % to PI3Kδ; for inhibition at 1 µM: 1 μM (Table 7); for inhibition at 10 µM: 10 μM (Table 7). Here is the method: Study on the inhibitory activity of the compounds of present invention to PI 3κα, PI3κδ and PI3κγ.
as §2
For example, 10 μL DTT is added into 500 μL 4× Reaction Buffer, and water is added to 1.5 mL.
The Test compounds are dissolved with DMSO to 1 mM as storage liquid. 2 μL of each of storage liquid is added into 48 μL ddH2O, to obtain the 40 μM compounds solution containing 4% DMSO. After mixing, 3 μL of each of the solution is added into 27 μL 4% DMSO (in ddH2O) to obtain the 4 μM compounds solution. […]
The screening concentration of PI 3k δ kinase: 2 ng/well,
as §6
The concentration of ATP is 100 μM in 20 μL kinase reaction system.
as §8, §9

Molecules are shown by their SMILES.

T1 sequence (P09619 33-1106): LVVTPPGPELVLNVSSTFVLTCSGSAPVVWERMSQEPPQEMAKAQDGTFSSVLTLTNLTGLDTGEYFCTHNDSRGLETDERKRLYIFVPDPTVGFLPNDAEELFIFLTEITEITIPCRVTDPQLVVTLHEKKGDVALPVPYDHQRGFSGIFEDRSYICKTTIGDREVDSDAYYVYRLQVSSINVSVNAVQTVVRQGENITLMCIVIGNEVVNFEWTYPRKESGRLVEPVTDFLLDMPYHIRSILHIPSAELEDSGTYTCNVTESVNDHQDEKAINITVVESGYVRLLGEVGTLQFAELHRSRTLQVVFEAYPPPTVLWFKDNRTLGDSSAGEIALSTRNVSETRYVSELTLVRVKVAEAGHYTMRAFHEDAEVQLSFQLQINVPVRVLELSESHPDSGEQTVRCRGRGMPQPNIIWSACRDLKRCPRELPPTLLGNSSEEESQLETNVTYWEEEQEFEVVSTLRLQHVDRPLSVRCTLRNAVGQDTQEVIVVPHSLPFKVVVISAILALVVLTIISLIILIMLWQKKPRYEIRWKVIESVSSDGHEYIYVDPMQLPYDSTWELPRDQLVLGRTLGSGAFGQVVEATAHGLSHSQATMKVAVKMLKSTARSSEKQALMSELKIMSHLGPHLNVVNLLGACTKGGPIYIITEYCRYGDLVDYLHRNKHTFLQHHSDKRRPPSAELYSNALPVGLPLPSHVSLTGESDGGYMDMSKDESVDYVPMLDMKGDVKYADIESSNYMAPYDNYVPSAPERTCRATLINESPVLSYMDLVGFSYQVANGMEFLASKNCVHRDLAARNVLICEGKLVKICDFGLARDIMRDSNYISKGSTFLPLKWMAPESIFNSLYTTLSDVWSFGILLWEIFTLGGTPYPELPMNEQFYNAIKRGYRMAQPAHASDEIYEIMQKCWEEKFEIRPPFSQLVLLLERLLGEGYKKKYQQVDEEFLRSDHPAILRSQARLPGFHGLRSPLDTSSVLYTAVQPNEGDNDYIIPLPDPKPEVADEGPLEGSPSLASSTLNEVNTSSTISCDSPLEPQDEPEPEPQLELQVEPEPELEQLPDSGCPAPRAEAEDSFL
T4 sequence (O00329 whole entry): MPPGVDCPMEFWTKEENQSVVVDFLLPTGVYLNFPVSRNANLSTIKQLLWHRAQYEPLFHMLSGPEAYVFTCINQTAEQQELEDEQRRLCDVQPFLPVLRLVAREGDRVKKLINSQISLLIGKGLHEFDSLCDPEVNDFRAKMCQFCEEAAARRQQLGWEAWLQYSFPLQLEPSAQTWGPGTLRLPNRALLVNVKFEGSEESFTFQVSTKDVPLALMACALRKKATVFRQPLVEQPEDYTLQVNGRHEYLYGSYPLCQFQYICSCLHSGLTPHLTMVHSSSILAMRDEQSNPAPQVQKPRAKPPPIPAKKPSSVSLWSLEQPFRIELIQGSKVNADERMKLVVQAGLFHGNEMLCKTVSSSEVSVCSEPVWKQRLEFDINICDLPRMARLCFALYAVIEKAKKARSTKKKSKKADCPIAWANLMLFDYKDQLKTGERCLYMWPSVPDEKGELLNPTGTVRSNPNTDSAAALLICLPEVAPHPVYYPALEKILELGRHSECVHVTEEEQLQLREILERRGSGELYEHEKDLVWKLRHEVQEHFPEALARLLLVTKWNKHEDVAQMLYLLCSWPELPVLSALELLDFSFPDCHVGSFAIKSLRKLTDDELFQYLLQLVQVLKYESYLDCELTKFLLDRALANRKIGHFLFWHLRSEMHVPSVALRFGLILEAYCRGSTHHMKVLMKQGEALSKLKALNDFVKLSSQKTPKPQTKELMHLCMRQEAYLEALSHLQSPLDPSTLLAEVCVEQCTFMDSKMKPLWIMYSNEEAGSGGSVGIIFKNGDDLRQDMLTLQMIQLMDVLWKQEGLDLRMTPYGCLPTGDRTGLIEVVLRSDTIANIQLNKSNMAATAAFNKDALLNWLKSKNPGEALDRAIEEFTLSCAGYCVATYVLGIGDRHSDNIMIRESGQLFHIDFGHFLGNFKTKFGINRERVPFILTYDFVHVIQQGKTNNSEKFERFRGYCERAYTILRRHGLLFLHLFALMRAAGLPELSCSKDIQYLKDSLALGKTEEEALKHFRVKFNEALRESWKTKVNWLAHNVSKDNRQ
T4 sequence (P27986 whole entry partner): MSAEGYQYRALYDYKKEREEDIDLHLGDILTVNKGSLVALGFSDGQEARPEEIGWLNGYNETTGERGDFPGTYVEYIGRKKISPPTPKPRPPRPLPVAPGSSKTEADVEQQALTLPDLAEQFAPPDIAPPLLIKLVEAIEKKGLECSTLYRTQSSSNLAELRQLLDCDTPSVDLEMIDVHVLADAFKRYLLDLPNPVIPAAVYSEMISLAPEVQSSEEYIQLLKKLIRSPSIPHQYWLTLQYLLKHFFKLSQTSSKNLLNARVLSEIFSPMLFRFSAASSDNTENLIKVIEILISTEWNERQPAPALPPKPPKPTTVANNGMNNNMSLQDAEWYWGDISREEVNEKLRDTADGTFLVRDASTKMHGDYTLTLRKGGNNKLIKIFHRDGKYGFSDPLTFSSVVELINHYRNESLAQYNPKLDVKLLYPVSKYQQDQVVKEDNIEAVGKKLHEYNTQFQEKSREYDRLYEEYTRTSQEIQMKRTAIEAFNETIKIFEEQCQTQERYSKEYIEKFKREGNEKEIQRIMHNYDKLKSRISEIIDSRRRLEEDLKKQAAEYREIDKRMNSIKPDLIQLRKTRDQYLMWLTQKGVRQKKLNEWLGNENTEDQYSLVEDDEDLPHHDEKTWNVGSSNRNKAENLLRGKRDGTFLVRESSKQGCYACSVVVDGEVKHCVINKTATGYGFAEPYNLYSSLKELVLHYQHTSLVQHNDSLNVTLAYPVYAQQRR
T2 sequence (P42336 whole entry): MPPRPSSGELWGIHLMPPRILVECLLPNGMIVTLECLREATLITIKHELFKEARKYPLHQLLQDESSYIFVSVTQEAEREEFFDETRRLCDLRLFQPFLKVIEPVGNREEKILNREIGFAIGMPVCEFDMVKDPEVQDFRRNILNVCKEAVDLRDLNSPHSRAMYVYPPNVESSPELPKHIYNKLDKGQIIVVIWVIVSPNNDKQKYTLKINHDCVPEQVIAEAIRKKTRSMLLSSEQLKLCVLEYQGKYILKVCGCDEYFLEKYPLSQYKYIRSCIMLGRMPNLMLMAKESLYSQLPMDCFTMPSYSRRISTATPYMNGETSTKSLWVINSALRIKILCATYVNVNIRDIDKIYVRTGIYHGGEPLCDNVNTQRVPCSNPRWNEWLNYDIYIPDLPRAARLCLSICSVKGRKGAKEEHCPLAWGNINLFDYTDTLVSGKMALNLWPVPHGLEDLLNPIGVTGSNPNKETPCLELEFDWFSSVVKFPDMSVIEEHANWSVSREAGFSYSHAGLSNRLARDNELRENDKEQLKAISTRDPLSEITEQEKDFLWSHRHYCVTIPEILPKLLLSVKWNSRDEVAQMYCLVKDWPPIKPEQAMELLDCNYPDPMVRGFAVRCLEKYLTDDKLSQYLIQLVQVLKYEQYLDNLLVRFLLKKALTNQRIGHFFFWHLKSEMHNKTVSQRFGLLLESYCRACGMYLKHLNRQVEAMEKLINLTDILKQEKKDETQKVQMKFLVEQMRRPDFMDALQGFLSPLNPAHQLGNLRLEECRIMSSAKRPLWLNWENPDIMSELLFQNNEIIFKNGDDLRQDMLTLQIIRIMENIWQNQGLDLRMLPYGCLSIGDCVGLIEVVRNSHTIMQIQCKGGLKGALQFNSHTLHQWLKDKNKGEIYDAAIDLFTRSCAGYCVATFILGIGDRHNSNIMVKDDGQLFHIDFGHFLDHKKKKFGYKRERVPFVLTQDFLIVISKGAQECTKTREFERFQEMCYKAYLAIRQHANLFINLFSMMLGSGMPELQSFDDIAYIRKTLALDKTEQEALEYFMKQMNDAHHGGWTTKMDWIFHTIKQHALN
T2 sequence (P27986 whole entry partner): as the sequence (P27986 whole entry partner) above
T3 sequence (P48736 whole entry): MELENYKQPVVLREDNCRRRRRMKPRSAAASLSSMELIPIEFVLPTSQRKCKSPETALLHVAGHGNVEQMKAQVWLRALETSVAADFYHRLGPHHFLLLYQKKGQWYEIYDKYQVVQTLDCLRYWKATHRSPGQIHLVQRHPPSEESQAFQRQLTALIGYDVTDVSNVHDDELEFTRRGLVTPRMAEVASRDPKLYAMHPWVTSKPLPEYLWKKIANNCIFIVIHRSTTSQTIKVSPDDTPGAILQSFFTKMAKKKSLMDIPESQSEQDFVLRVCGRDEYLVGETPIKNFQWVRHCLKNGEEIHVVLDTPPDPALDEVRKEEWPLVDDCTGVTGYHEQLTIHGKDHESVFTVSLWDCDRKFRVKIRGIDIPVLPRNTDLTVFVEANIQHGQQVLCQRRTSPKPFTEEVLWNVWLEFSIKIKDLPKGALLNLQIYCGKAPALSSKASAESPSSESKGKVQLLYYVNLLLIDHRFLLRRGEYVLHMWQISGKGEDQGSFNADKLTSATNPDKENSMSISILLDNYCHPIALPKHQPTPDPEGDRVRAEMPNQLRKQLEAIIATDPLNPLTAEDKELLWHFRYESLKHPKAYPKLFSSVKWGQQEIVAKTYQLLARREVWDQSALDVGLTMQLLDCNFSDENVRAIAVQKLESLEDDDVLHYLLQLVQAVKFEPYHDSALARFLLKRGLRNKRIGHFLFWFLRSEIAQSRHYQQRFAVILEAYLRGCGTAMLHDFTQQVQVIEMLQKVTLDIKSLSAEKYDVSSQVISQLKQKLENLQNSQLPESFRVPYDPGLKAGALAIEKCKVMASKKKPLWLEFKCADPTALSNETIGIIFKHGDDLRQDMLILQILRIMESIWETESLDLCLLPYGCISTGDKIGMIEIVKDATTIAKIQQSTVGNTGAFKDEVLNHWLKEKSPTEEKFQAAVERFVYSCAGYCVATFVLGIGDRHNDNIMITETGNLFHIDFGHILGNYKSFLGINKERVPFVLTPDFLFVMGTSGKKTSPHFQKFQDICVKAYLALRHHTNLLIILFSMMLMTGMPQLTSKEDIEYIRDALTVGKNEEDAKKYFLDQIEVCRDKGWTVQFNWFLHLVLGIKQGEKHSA

Regarding `OCCCNc1nc(Nc2ccc3nccc(-c4ccccc4)c3c2)nc2[nH]cnc12` [MED1007-73, 3-(2-(4-phenylquinoline-6-ylamino)-9H-purine-6-ylamino) propyl-1-ol], the inhibition at 1 µM came to 17% in assay [1], 29.7% in assay [2], 5.49% in assay [3] and 6.41% in assay [4]. Moreover, the inhibition at 10 µM in assay [1] turned out to be 35%; in assay [2], 66.1%; in assay [3] it was 28.4%; in assay [4], 66.5%.

For the compound `c1ccc(-c2ccnc3ccc(Nc4nc(NC5CCC5)c5nc[nH]c5n4)cc23)cc1` [MED1007-75, N6-cyclobutyl-N2-(4-phenylquinoline-6-yl)-9H-purine-2,6-diamine], the inhibition at 1 µM was found to be 13.2% in assay [1], 11.1% in assay [2], 6.93% in assay [3] and 10.9% in assay [4]. For the same compound, the inhibition at 10 µM in assay [1] was 8.74%; in assay [2], 51.3%; in assay [3] it was 10.9%; in assay [4] it was 42.6%.

For the compound `CCOc1cccc(-c2ccnc3ccc(Nc4nc(NC5CC5)c5nc[nH]c5n4)cc23)c1` [MED1007-83, N6-cyclopropyl-N2-(4-(3-ethoxyphenyl)quinoline-6-yl)-9H-purine-2,6-diamine], the inhibition at 1 µM in assay [1] was determined as 4.5%; in assay [2], 36.2%; in assay [3], 5.93%; in assay [4], 22.7%. The inhibition at 10 µM in assay [1] was 7.6%; in assay [2], 87.6%; in assay [3] it was 24%; in assay [4] it was 68.5%.

For the compound `COc1ccc(-c2ccnc3ccc(Nc4nc(NC5CC5)c5nc[nH]c5n4)cc23)cc1OC` [MED1007-84, N6-cyclopropyl-N2-(4-(3,4-dimethoxyphenyl)quinoline-6-yl)-9H-purine-2,6-diamine], the inhibition at 1 µM is -8.59% in assay [1], 58.7% in assay [2], 26.6% in assay [3] and 71.8% in assay [4]. For the same compound, the inhibition at 10 µM in assay [1] was 13.4%; in assay [2], 99.2%; in assay [3], 34.2%; in assay [4], 101%.

Take `c1cc(-c2ccc3c(c2)OCO3)c2cc(Nc3nc(NC4CC4)c4nc[nH]c4n3)ccc2n1` [MED1007-85, N2-(4-(benzo[1,3]-dioxole-5-yl)quinoline-6-yl)-N6-cyclopropane-9H-purine-2,6-diamine]: the inhibition at 1 µM in assay [1] is -3.44%; in assay [2] it was 66.2%; in assay [3], 16.8%; in assay [4], 54.1%. Also, the inhibition at 10 µM in assay [1] is 29.8%; in assay [2], 90.1%; in assay [3] it was 41.9%; in assay [4], 113%.

With `COc1ccccc1-c1ccnc2ccc(Nc3nc(NC4CC4)c4nc[nH]c4n3)cc12` [MED1007-86, N6-cyclopropyl-N2-(4-(2-methoxyphenyl)quinoline-6-yl)-9H-purine-2,6-diamine], the inhibition at 1 µM in assay [1] is -5.49%; in assay [2] it was 19.2%; in assay [3] it was 8.35%; in assay [4], 27.3%. The inhibition at 10 µM in assay [1] is -3.13%; in assay [2], 39.6%; in assay [3], 23.1%; in assay [4], 66.4%.

Consider `CSc1ccccc1-c1ccnc2ccc(Nc3nc(NC4CC4)c4nc[nH]c4n3)cc12` [MED1007-87, N6-cyclopropyl-N2-(4-(2-(methylthio)phenyl)quinoline-6-yl)-9H-purine-2,6-diamine], for which the inhibition at 1 µM is -7.6% in assay [1], 13.8% in assay [2], -3.76% in assay [3] and 23% in assay [4]. The inhibition at 10 µM in assay [1] is -4.13%; in assay [2], 60.6%; in assay [3], 29.5%; in assay [4] it was 80%.

Source of the values: US9718823B2, “2, 6-Di-nitrogen-containing substituted purine derivative, and preparation method, pharmaceutical composition and use thereof” (Zhejiang Medicine Co., Ltd. Xinchang Pharmaceutical Factory, priority 2013, dated 2017).
